From patent publication US12612412B2, “Antiviral heterocyclic compounds” (Enanta Pharmaceuticals, Inc., priority 2021, dated 2026)
pEC50: −log10 of the molar value.

Assays:
[1] = test system: genotype A, "Long" strain RSV; test: RSV-A assay (CPE protection in Hep-2 cells, ATPlite readout); format: cell-based, Human respiratory syncytial virus (HRSV); details: human respiratory syncytial virus, genotype A “Long” strain RSV, MOI 0.1, CPE protection, read-out: Human RSV-A (“Long”)
How it was run: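 ATPlite luminescence (cellular ATP) served as the measure of cell health after 5 days of infection. Hep-2 cells at 8,000 per well received duplicate 2-fold compound dilutions plus virus at MOI 0.1, and EC50 was calculated from CPE protection.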

[2] = test system: recombinant HMPV CAN97-83 containing eGFP (MPV-GFP1); test: HMPV antiviral assay Method-A (MPV-GFP1 eGFP fluorescence in Vero E6 cells); format: cell-based, Human metapneumovirus (HMPV); details: human metapneumovirus, Vero C1008, 120 h, read-out: HMPV EC50
How it was run: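 Vero E6 cells in serum-free OptiMEM with 0.5 μg/mL TPCK-trypsin were infected with eGFP-expressing HMPV CAN97-83 at MOI 0.05, with 8-point twofold dilutions from 8 or 2 μM (0.5% DMSO). After 5 days at 32° C, eGFP fluorescence gave % inhibition versus infected untreated wells. EC50 came from four-parameter logistic fits.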

Compound `COc1cc(C(=O)NC[C@](O)(c2cc3c(c(-c4ccc(Cl)c(F)c4)n2)OC[C@]3(C)C(N)=O)C(F)(F)F)cc2cc(C3CC3)nn12` [Example 301] has a pEC50 [1] greater than 6.70 and a pEC50 [2] greater than 6.30.
In the case of `C[C@]1(C(N)=O)COc2c1cc([C@@](O)(CNC(=O)c1cc(F)c3nc(N)sc3c1)C(F)(F)F)nc2-c1ccc(Cl)c(F)c1` [Example 305], the pEC50 [1] was greater than 6.70 and the pEC50 [2] was greater than 6.30.
In the case of `C[C@]1(C(N)=O)COc2c1cc([C@@](O)(CNC(=O)c1cc(F)c3nc(N)sc3c1)C(F)(F)F)nc2-c1ccc(Cl)c(Cl)c1` [Example 306], the pEC50 [1] was greater than 6.70 and the pEC50 [2] was greater than 6.30.
`C[C@]1(C(N)=O)COc2c1cc([C@@](O)(CNC(=O)c1cc(F)c3nc(N)sc3c1)C(F)(F)F)nc2-c1ccc(Cl)cc1` [Example 307] showed a pEC50 [1] greater than 6.70 and a pEC50 [2] greater than 6.30.
In the case of `C[C@]1(C(N)=O)COc2c1cc([C@@](O)(CNC(=O)c1cc(F)c3nc(N)sc3c1)C(F)(F)F)nc2-c1ccc(F)c(F)c1` [Example 308], the pEC50 [1] was greater than 6.70 and the pEC50 [2] was greater than 6.30.
`C[C@]1(C(N)=O)COc2c1cc([C@@](O)(CNC(=O)c1cc(F)c3nc(N)sc3c1)C(F)(F)F)nc2-c1ccc(C#N)cc1` [Example 309] showed a pEC50 [1] greater than 6.70 and a pEC50 [2] of less than 6.30.
With `COc1cc(C(=O)NC[C@](O)(c2cc3c(c(-c4ccc(Cl)cc4)n2)OC[C@]3(C)C(N)=O)C(F)(F)F)cc2cc(C(F)(F)F)cnc12` [Example 314] the pEC50 [1] was greater than 6.70 and the pEC50 [2] was greater than 6.30.
`COc1cc(C(=O)NC[C@](O)(c2cc3c(c(-c4ccc(F)c(F)c4)n2)OC[C@]3(C)C(N)=O)C(F)(F)F)cc2cc(C(F)(F)F)cnc12` [Example 315] showed a pEC50 [1] greater than 6.70 and a pEC50 [2] greater than 6.30.
`C[C@]1(C(N)=O)COc2c1cc([C@@](O)(CNC(=O)c1cc(OC3CC3)n3nc(C4CC4)cc3c1)C(F)(F)F)nc2-c1ccc(F)cc1` [Example 321] gave a pEC50 [1] greater than 6.70 and a pEC50 [2] greater than 6.30.
`COc1cc(C(=O)NC[C@](O)(c2cc3c(c(-c4ccc(F)cc4)n2)OC[C@]3(C)C(N)=O)C(F)(F)F)cc2cc(C3CCC3)nn12` [Example 322] was tested, and the pEC50 [1] was greater than 6.70 and the pEC50 [2] was less than 6.30.
For `COc1cc(C(=O)NC[C@](O)(c2cc3c(c(-c4ccc(F)cc4)n2)OC[C@]3(C)C(N)=O)C(F)(F)F)cc2cn(C3CCC3)nc12` [Example 323], the pEC50 [1] was greater than 6.70 and the pEC50 [2] was less than 6.30.
`COc1cc(C(=O)NC[C@](O)(c2cc3c(c(-c4ccc(F)c(Cl)c4)n2)OC[C@]3(C)C(N)=O)C(F)(F)F)cc2cn(C3CCC3)nc12` [Example 324] was tested, and the pEC50 [1] was greater than 6.70 and the pEC50 [2] was greater than 6.30.
Work on `Cc1ccc2cc(C(=O)NC[C@](O)(c3cc4c(c(-c5ccc(F)cc5)n3)OC[C@]4(C)C(N)=O)C(F)(F)F)cc(OC(F)F)c2n1` [Example 327] yielded a pEC50 [1] greater than 6.70 and a pEC50 [2] of less than 6.30.
`[2H]C([2H])([2H])NC(=O)Nc1cc(C(=O)NC[C@](O)(c2cc3c(c(-c4ccc(F)cc4)n2)OC[C@]3(C)C(N)=O)C(F)(F)F)cc2cc(C)cnc12` [Example 329] showed a pEC50 [1] greater than 6.70 and a pEC50 [2] greater than 6.30.
In the case of `COc1cc(C(=O)NC[C@](O)(c2cc3c(c(-c4ccc(F)cc4)n2)OC[C@]3(C)C(N)=O)C(F)(F)F)cc2c1OCO2` [Example 441], the pEC50 [1] was greater than 6.70 and the pEC50 [2] was less than 6.30.
